Test results taken from patent US9284323B2, “Naphthalene acetic acid derivatives against HIV infection” (Gilead Sciences, Inc., priority 2012, dated 2016).

Tested on: HIV-IIIb
Assay: Test A: Antiviral Assays in MT4 Cells
Assay type: cell-based
Settings: MT-4 cells infected with HIV-IIIb, 5 days incubation, CellTiter-Glo readout
Experimental: The antiviral properties of a compound disclosed herein may be determined using Test A described below.
Test A: Antiviral Assays in MT4 Cells
For the antiviral assay utilizing MT-4 cells, 0.4 μL of […] test concentration of 3-fold serially diluted compound in DMSO was added to 40 μL of cell growth medium (RPMI 1640, 10% FBS, 1% penicillin/Streptomycin, 1% L-Glutamine, 1% HEPES) in each well of 384-well assay plates (10 concentrations) in quadruplicate.
1 mL aliquots of 2×10e6 MT-4 cells are pre-infected for 1 and 3 hrs respectively, @ 37° C. with 25 μL (MT4) or of either cell growth medium (mock-infected) or a fresh 1:250 dilution of an HIV-IIIb concentrated ABI stock (0.004 m.o.i. for MT4 cells). Infected and uninfected cells are diluted in cell growth medium and 35 μL of 2000 (for MT4) cells is added to each well of the assay plates.
Assay plates were then incubated in a 37° C. incubator. After 5 days of incubation, 25 μl of 2× concentrated CellTiter-Glo™ Reagent (catalog # G7573, Promega Biosciences, Inc., Madison, Wis.) was added to each well of the assay plate. Cell lysis was carried out by incubating at room temperature for 2-3 min and then chemiluminescence was read using the Envision reader (PerkinElmer).

[1] = Human immunodeficiency virus 1, IIIB, MT4, 120 h, Table I
[2] = Human immunodeficiency virus 1, IIIB, MT4, 120 h, Table II

Compound | EC50 (Table II) [nM] | EC50 [2] [nM] | further results
CCCCC(C)(C)O[C@H](C(=O)O)c1c(C)cc2ccccc2c1-c1ccc2c3c(ccnc13)CCO2 (atropisomer, axis not shown) [Example 30, (S)-2-((S)-1-(2,3-Dihydropyrano[4,3,2-de]quinolin-7-yl)-3-methylnaphthalen-2-yl)-2-(2-methylhexan-2-yloxy)acetic acid] |  |  | EC50 [1]: 84 nM
Cc1cc2ccc(C#CC(C)(O)c3ccccn3)cc2c(-c2ccc(Cl)cc2)c1[C@H](OC(C)(C)C)C(=O)O (stereo partly drawn) [Example 10, (2S)-2-tert-Butoxy-2-(1-(4-chlorophenyl)-7-(3-hydroxy-3-(pyridin-2-yl)but-1-ynyl)-3-methylnaphthalen-2-yl)acetic acid] |  |  | EC50 [1]: 62 nM
Cc1cc2cc(-c3cncnc3N)ccc2c(-c2ccc3c4c(ccnc24)CCO3)c1[C@H](OC(C)(C)C)C(=O)O (atropisomer, axis not shown) [Example 54] | 19400 |  | 
Cc1cc2c(C)c(-c3cnc(N4CCN(C)CC4)nc3)ccc2c(-c2ccc3c4c(ccnc24)CCO3)c1[C@H](OC(C)(C)C)C(=O)O (atropisomer, axis not shown) [Example 71] |  | 4.23 | 

Further lines, with some results ahead:

EC50 (Table II) [nM] | EC50 [2] [nM] | Compound | further results
6420 |  | Cc1cc2ccccc2c(-c2ccc3c4c(ccnc24)CCO3)c1[C@H](OC(C)(C)CCF)C(=O)O (atropisomer, axis not shown) [Example 96] | 
 | 40.7 | Cc1cc2ccccc2c(-c2ccc3c4c(ccnc24)CCO3)c1C(OC(C)(CF)CF)C(=O)O (centres unmarked) [Example 106] | 
37800 |  | Cc1cc2c(C)c(-c3cnc(N)nc3)ccc2c(-c2ccc3c4c(ccnc24)CCO3)c1[C@H](OC(C)(C)C)C(=O)O [Example 74] | 
 | 4740 | Cc1cc2ccccc2c(-c2ccc3c4c(ccnc24)CCO3)c1[C@@H](OC(C)(C)CF)C(=O)O (atropisomer, axis not shown) [Example 101] | 
